# Test results from patent US20230348447A1, “OXAZOLIDINONE COMPOUNDS, LIPOSOME COMPOSITIONS COMPRISING OXAZOLIDINONE COMPOUNDS AND METHOD OF USE THEREOF” (priority 2020, published 2023).
# Read-outs that look alike come from different tables or passages of the source.
# Tests used:
# [1] = test system: human hepatocyte/liver (HepG2; ATCC #HB8065) cells; test: In vitro cytotoxicity (PrestoBlue cell viability), HepG2; format: cell-based
# M.tb H37Rv = test: Broth microdilution MIC with Alamar blue endpoint (MABA) / OD600; format: cell-based, Mycobacterium tuberculosis
# MRSA ATCC 43300 = test: MIC against methicillin resistant Staphylococcus aureus (MRSA); conditions: read-out: MRSA MIC, ATCC 43300
# MRSA 880 NR-49120 = test: as above; conditions: read-out: MRSA MIC, 880 NR-49120
# M.tb Erdman = test: Broth microdilution MIC with Alamar blue endpoint (MABA) / OD600; format: cell-based, Mycobacterium tuberculosis
# [2] = test system: M. Tuberculosis Erdman or H37Rv vs VERO or HepG2 cells; test: Selectivity Index (mammalian cell IC50 / bacterial MIC); set-up: species or system Mycobacterium tuberculosis
# [3] = test system: mitochondrial protein synthesis (COX-1/SDH-A ratio) in H9C2 rat heart myoblast cells; test: Mitochondrial protein synthesis inhibition (MitoBiogenesis in-cell ELISA, COX-1/SDH-A); format: cell-based; conditions: 120 h, five days, read-out: MPS IC50
# MRSA ATCC BAA-1556 = test: MIC against methicillin resistant Staphylococcus aureus (MRSA)
# [4] = test system: African green monkey kidney (Vero; ATCC # CCL81) cells; test: In vitro cytotoxicity (PrestoBlue cell viability), Vero; format: cell-based
# M. chelonae = test: MIC in nontuberculosis mycobacteria (microbroth dilution, resazurin); format: cell-based, Mycobacterium chelonae; conditions: Mycobacteroides chelonae, read-out: MIC
# [5] = In vitro burst release of liposomal drug in plasma, human; conditions: mouse or human plasma, 20 min 37° C., 0.5 M AS liposomes, 40-65 mol% Chol (FIG. 5A, 5B)
# Experimental: The plasma was thawed, if necessary, adjusted to pH 7.4 with 1 N HCl, and sequentially filtered through glass microfiber filters (GF/C), 1 µm polyethersulfone (PES), and 0.22 µm PES filters. Plasma (80 µl) was mixed with liposomal drug formulations (20 µl) in a 0.5 ml Eppendorf tube. The mixture was subsequently incubated for 20 min at 37° C. and then put into chilled water.
# Incubation time was 20 min.
# [6] = Liposome loading / encapsulation efficiency (General protocol)
# M.avium = test: MIC in nontuberculosis mycobacteria (microbroth dilution, resazurin); format: cell-based, Mycobacterium avium; conditions: Mycobacterium avium, read-out: MIC
# M. massiliense = test: as above; format: cell-based, Mycobacterium massiliense
# M. abscessus = test: as above; format: cell-based, Mycobacterium abscessus; conditions: Mycobacteroides abscessus, read-out: MIC
# M. kansasii = test: as above; format: cell-based; conditions: Mycobacterium kansasii, read-out: MIC
# [7] = Aqueous solubility (visually clear solutions); format: physicochemical; conditions: aqueous, 1 N HCl and/or water added
# Experimental: Working stocks of the compounds were prepared as follows: to an aliquot of a compound (free base) in a powder form 1-1.5 equivalents of HCl in the form of 1 N aqueous solution was added, and the mixture was vortexed until homogeneity. To the resulting cake or syrup, water was added typically to the final 10 mg/ml, and complete dissolution was observed. In some instances, 0.95 equivalents of HCl were added to the free base form of the drug, and 20 mg/ml stock solution was prepared.
# Aqueous solubility of the compounds of the present disclosure is illustrated by the following observations of obtaining visually clear solutions: […]
# [8] = Homo sapiens, HepG2, 72 h, read-out: Cell viability IC50, HepG2
# [9] = Mycobacterium tuberculosis, H37RV, read-out: MIC (H37Rv)
# [10] = Mycobacterium tuberculosis, H37RV, read-out: Mycobacterium tuberculosis MIC, H37Rv
# [11] = Mycobacterium tuberculosis, ERDMAN, read-out: Mycobacterium tuberculosis MIC, Erdman
# [12] = read-out: MRSA MIC, ATCC BAA-1556
# [13] = Chlorocebus sabaeus, Vero, 72 h, read-out: Cell viability IC50, VERO
# [14] = Homo sapiens, HepG2, 72 h; read-out: Cell viability IC50, HepG2
# [15] = Mycobacterium tuberculosis, H37RV; as determined in Example 2; read-out: MIC (H37Rv)
# [16] = Mycobacterium tuberculosis, H37RV; read-out: Mycobacterium tuberculosis MIC, H37Rv
# [17] = Mycobacterium tuberculosis, ERDMAN; read-out: Mycobacterium tuberculosis MIC, Erdman
# [18] = Mycobacterium tuberculosis; M. tuberculosis Erdman / H37Rv, strains not separated; read-out: MIC
# [19] = Chlorocebus sabaeus, Vero, 72 h; read-out: Cell viability IC50, VERO
# [20] = 1 N TEA-SOS, DL0 750-1500 g/mol PhL, no buffer
smiles,measurement,setting,value
Cl.Cl.NCCn1nnc(-c2ccc(-c3ccc(N4C[C@H](CN)OC4=O)cc3F)cn2)n1 [AKG-29],IC50,[1]; [8],74.4 µg/mL
same,MIC,M.tb H37Rv; [9],0.125 µg/mL
same,MIC,M.tb H37Rv; [10],0.125 µg/mL
same,MIC,MRSA ATCC 43300,> 50 µg/mL
same,MIC,MRSA 880 NR-49120,50 µg/mL
same,MIC,M.tb Erdman; [11],0.25 µg/mL
same,Selectivity Index (SI) Erd/HepG2,[2],297.6
same,Selectivity Index (SI) Erd/VERO,[2],439.6
same,IC50,[3],4.11 µg/mL
same,MIC,MRSA ATCC BAA-1556; read-out: MRSA MIC,> 50 µg/mL
same,MIC,MRSA ATCC BAA-1556; [12],50 µg/mL
same,IC50,[4]; [13],110 µg/mL
CC(=O)NC[C@H]1CN(c2ccc(-c3ccc(-c4nnn(CCN(C)C)n4)nc3)c(F)c2)C(=O)O1 [AKG-38],MIC,M. chelonae; M. chelonae strain 49,0.06 µg/mL
same,MIC,M. chelonae; M. chelonae strain 69,0.5 µg/mL
same,MIC,M. chelonae; M. chelonae strain 35752,0.06 µg/mL
same,IC50,[1]; [14],97 µg/mL
same,MIC,M.tb H37Rv; [15],0.06 µg/mL
same,MIC,M.tb H37Rv; [16],0.06 µg/mL
same,MIC,MRSA ATCC 43300,1.85 µg/mL
same,MIC,MRSA 880 NR-49120,0.617 µg/mL
same,burst release phenomenon in plasma in vitro,[5],"observed in both human and mouse plasma for the formulations with cholesterol content of 40 mol.% and 45 mol.%, but not at cholesterol content of 50 mol.% or more"
same,maximum drug load,"[6]; 0.5 M AS, HSPC:Chol 3:2, 0.5 mol% PEG-DSG (Example 14)",818-842 g/mol PhL
same,maximum drug load,"[6]; 1 N TEA-SOS, HSPC:Chol 3:2, 0.5 mol% PEG-DSG (Example 14)",989 g/mol PhL
same,liposome aggregation during drug loading,"[6]; 30 mol% cholesterol, 1 N TEA-SOS, AKG-28: 5 mol% PEG-DSG or PEG-DSPE, AKG-38: 5 mol% PEG-DSPE",irreversibly aggregated during the drug loading
same,drug load,"[6]; 30 mol% cholesterol, 5 mol % PEG-DSG, 1 N TEA-SOS",462.4 g/mol PhL
same,MIC,M.avium; M. avium sbsp. avium strain 2285 R,0.06 µg/mL
same,MIC,M.avium; M. avium sbsp. avium strain 2285 S,0.125 µg/mL
same,MIC,M.avium; M. avium sbsp. avium strain 3993,0.125 µg/mL
same,MIC,M.tb Erdman; [17],0.06 µg/mL
same,MIC,M.tb Erdman; [18],0.06 µg/mL
same,MIC,M. massiliense; M. massiliense strain M154,0.25 µg/mL
same,MIC,"M. massiliense; Mycobacteroides abscessus, CIP108297, M. massiliense strain CIP 108297, read-out: MIC",0.5 µg/mL
same,MIC,"M. massiliense; Mycobacteroides abscessus, M. massiliense strain CRM0019, read-out: MIC",0.25 µg/mL
same,IC50,[3],0.041 µg/mL
same,MIC,MRSA ATCC BAA-1556; [12],1.85 µg/mL
same,MIC,M. abscessus; M. abscessus sbsp. abscessus strain 21,0.06 µg/mL
same,MIC,M. abscessus; M. abscessus sbsp. abscessus strain 1513,32 µg/mL
same,MIC,M. abscessus; M. abscessus sbsp. abscessus strain 1948,0.06 µg/mL
same,MIC,M. kansasii; M. kansasii strain 662,> 32 µg/mL
same,MIC,M. kansasii; M. kansasii strain 732,0.03 µg/mL
same,MIC,M. kansasii; M. kansasii strain 824,0.06 µg/mL
same,MIC,M. kansasii; M. kansasii strain MK13D6,0.03 µg/mL
same,MIC,M. kansasii; M. kansasii strain WT171017,0.03 µg/mL
same,Concentration % (w/w) of free base (visually clear solution),[7],7.1 % (w/w)
same,IC50,[4]; [19],395 µg/mL
CCN(CC)CCn1nnc(-c2ccc(-c3ccc(N4C[C@H](CNC(C)=O)OC4=O)cc3F)cn2)n1 [AKG-39],IC50,[1]; [14],70 µg/mL
same,MIC,M.tb H37Rv; [15],0.5 µg/mL
same,MIC,M.tb H37Rv; [16],0.5 µg/mL
same,MIC,MRSA ATCC 43300,1.85 µg/mL
same,MIC,MRSA 880 NR-49120,1.85 µg/mL
same,MIC,M.tb Erdman; [17],0.5 µg/mL
same,MIC,M.tb Erdman; [18],0.5 µg/mL
same,Selectivity Index (SI) Erd/HepG2,[2],140.0
same,Selectivity Index (SI) Erd/VERO,[2],402.0
same,IC50,[3],0.06 µg/mL
same,MIC,MRSA ATCC BAA-1556; [12],1.85 µg/mL
same,IC50,[4]; [19],201 µg/mL
CN(C)CCn1nnc(-c2ccc(-c3ccc(N4C[C@H](CO)OC4=O)cc3F)cn2)n1 [AKG-16],IC50,[1]; [14],91 µg/mL
same,MIC,M.tb H37Rv; [15],0.25 µg/mL
same,MIC,M.tb H37Rv; [16],0.25 µg/mL
same,MIC,MRSA ATCC 43300,1.85 µg/mL
same,MIC,MRSA 880 NR-49120,1.85 µg/mL
same,Maximum encapsulated drug payload,"[6]; 0.5 M AS, 0.5 mol% PEG",668-675 g/mol PhL
same,Maximum encapsulated drug payload,"[6]; 0.5 M AS, 5 mol% PEG",614-619 g/mol PhL
same,maximum drug load,[6]; [20],938-951 g/mol PhL
same,MIC,M.tb Erdman; [17],0.25 µg/mL
same,IC50,[3],0.244 µg/mL
same,MIC,MRSA ATCC BAA-1556; [12],1.85 µg/mL
same,Concentration % (w/w) of free base (visually clear solution),[7],30.0 % (w/w)
same,IC50,[4]; [19],97 µg/mL
CCN(CC)CCCn1nnc(-c2ccc(-c3ccc(N4C[C@H](CNC(C)=O)OC4=O)cc3F)cn2)n1 [AKG-40],IC50,[1]; [14],113 µg/mL
same,"Mycobacterium tuberculosis MIC, H37Rv",M.tb H37Rv,0.5 µg/mL
same,MIC,M.tb H37Rv; [15],0.5 µg/mL
same,MIC,M.tb H37Rv; [16],0.5 µg/mL
same,MIC,MRSA ATCC 43300,5.55 µg/mL
same,MIC,MRSA 880 NR-49120,1.85 µg/mL
same,"Mycobacterium tuberculosis MIC, Erdman",M.tb Erdman,1 to 2 µg/mL
same,MIC,M.tb Erdman; [17],1 µg/mL
same,Selectivity Index (SI) Erd/HepG2,[2],113.0
same,Selectivity Index (SI) Erd/VERO,[2],>250.0
same,IC50,[3],0.064 µg/mL
same,MIC,MRSA ATCC BAA-1556; [12],1.85 µg/mL
same,IC50,[4]; [19],> 250 µg/mL
Cl.Cn1nnc(-c2ccc(-c3ccc(N4C[C@H](CN)OC4=O)cc3F)cn2)n1 [AKG-3],IC50,[1]; [8],21.2 µg/mL
same,MIC,M.tb H37Rv; [9],0.06 µg/mL
same,MIC,M.tb H37Rv; [10],0.06 µg/mL
same,MIC,MRSA ATCC 43300,50 µg/mL
same,MIC,MRSA 880 NR-49120,50 µg/mL
same,Maximum encapsulated drug payload,"[6]; 0.5 M AS, 0.5 mol% PEG",590 g/mol PhL
same,Maximum encapsulated drug payload,"[6]; 0.5 M AS, 5 mol% PEG",600-606 g/mol PhL
same,loading efficiency at or near the maximum drug load,"[6]; 1 N TEA-SOS, DL0 750-1500 g/mol PhL",at least 97.6%
same,maximum drug load,[6]; [20],900-930 g/mol PhL
same,Drug loading efficiency,"[6]; PEG-DSG 0.5 mol%, 1 N TEA-SOS, DL0 500 g/mol PhL",100.8
same,Drug loading efficiency,"[6]; PEG-DSG 0.5 mol%, […] AS, DL0 250 g/mol PhL",100.4
same,Drug loading efficiency,"[6]; PEG-DSG 0.5 mol%, […] AS, DL0 500 g/mol PhL",80.3
same,Drug loading efficiency,"[6]; PEG-DSG 5 mol%, 1 N TEA-SOS, DL0 500 g/mol PhL",107.4
same,MIC,M.tb Erdman; [11],0.125 µg/mL
same,Selectivity Index (SI) Erd/HepG2,[2],169.6
same,Selectivity Index (SI) Erd/VERO,[2],142.4
same,IC50,[3],0.115 µg/mL
same,MIC,MRSA ATCC BAA-1556; read-out: MRSA MIC,> 50 µg/mL
same,MIC,MRSA ATCC BAA-1556; [12],50 µg/mL
same,IC50,[4]; [13],17.8 µg/mL
Cl.NCCn1nnnc1-c1ccc(-c2ccc(N3C[C@H](CO)OC3=O)cc2F)cn1 [AKG-22],IC50,[1]; [14],17.2 µg/mL
same,MIC,M.tb H37Rv; [15],0.5 µg/mL
same,MIC,M.tb H37Rv; [16],0.5 µg/mL
same,MIC,MRSA ATCC 43300,16.7 µg/mL
same,MIC,MRSA 880 NR-49120,5.55 µg/mL
same,MIC,M.tb Erdman; [17],1 µg/mL
same,Selectivity Index (SI) Erd/HepG2,[2],17.2
same,Selectivity Index (SI) Erd/VERO,[2],57.7
same,IC50,[3],1.18 µg/mL
same,MIC,MRSA ATCC BAA-1556; [12],1.85 to 5.55 µg/mL
same,IC50,[4]; [19],57.7 µg/mL
